A word on the inhibition: it is the relative decrease from the control value, in per cent.

Experiment [1] has as its target T1, Inhibitor of nuclear factor kappa-B kinase subunit alpha (Homo sapiens) (UniProt O15111).
T1 sequence (whole entry): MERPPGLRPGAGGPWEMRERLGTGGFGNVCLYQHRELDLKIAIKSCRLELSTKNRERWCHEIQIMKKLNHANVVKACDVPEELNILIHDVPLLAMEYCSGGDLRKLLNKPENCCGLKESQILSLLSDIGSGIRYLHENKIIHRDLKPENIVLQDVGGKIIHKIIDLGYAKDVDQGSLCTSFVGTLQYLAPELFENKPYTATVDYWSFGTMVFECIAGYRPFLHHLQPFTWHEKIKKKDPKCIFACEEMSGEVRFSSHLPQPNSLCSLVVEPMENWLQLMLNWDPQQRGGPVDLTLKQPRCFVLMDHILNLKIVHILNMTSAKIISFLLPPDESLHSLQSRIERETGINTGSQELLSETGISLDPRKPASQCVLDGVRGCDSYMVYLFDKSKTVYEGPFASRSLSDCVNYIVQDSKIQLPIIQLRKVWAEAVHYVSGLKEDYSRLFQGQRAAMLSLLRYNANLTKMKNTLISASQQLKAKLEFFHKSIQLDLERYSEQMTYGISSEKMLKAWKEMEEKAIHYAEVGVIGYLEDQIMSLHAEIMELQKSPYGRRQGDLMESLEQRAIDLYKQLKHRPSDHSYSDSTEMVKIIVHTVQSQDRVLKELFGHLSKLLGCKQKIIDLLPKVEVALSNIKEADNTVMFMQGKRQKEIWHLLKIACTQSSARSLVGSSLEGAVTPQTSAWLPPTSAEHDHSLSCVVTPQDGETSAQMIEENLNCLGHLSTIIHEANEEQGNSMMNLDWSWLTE
To be noted: at 1 µM.

Experiment [2] has as its target T2, Inhibitor of nuclear factor kappa-B kinase subunit epsilon (Homo sapiens) (UniProt Q14164).
T2 sequence (whole entry): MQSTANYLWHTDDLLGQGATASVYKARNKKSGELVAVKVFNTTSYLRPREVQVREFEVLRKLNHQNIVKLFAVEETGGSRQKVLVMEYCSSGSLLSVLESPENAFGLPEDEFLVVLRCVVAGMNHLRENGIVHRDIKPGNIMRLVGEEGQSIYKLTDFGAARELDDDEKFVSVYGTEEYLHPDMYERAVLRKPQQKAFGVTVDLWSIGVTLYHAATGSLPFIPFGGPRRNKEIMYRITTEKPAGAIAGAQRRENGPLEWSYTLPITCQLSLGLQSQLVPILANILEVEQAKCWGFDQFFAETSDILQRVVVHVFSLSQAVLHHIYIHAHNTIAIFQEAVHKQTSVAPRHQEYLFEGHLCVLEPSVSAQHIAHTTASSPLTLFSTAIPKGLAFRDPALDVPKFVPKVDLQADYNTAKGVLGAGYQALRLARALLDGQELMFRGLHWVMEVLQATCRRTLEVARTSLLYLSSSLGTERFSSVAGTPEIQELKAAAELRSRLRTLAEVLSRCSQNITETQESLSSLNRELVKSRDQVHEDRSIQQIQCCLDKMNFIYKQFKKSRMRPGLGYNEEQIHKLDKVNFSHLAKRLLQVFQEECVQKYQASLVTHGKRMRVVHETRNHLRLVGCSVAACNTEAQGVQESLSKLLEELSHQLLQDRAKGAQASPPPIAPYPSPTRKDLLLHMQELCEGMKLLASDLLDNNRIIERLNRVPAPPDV
To be noted: at 1 µM.

Several values for one entry are separate records, joined by “and”; a condition that tells them apart may be missing. Equal entries are not always repeated.

Turning to `CCc1nn2ncccc2c1-c1ccnc(NC2CC2)n1`, the inhibition in experiment [1] is 0%; in experiment [2] it was -2% and -1%.
Regarding `CN1CCN(CCCNc2nc3ccc(Oc4ccc(NC(=O)Nc5cc(C(F)(F)F)ccc5F)cc4)cc3[nH]2)CC1`, the inhibition in experiment [1] was 4%; in experiment [2] it was -2%.
Turning to `COc1ccc2ncnc(Nc3ccc(OCc4ccccc4)cc3)c2c1`, the inhibition was 2% and 3% in experiment [1]; 1% in experiment [2].
Consider `COc1cc2ncn(-c3cc(OCCc4ccccc4)c(C(N)=O)s3)c2cc1OC`, for which the inhibition is -2% in experiment [1]; 10% and 11% in experiment [2].
Regarding `COc1cccc(COc2cc(-n3cnc4ccccc43)sc2C(N)=O)c1`, the inhibition was 4% and 3% in experiment [1]; -1% in experiment [2].
In the case of `COc1cccc(-n2ncc3c(N/N=C/c4ccc(C(=O)NCCN(C)C)cc4)ncnc32)c1`, the inhibition in experiment [1] was 7% and 19%; in experiment [2], 29% and 27%.
Consider `O=C1Nc2ccc(I)cc2C1=Cc1cc(Br)c(O)c(Br)c1`, for which the inhibition in experiment [1] was 10% and 11%; in experiment [2] it was 3% and 2%.
As to `CN(C)c1ccc2c(c1)/C(=C/Nc1ccc(S(N)(=O)=O)cc1)C(=O)N2`, the inhibition is 0% and -1% in experiment [1]; 37% and 36% in experiment [2].
Turning to `CCN(CC)Cc1ccc(Nc2nccc(-c3cnn4ncccc34)n2)cc1`, the inhibition was -1% and -2% in experiment [1]; 18% and 19% in experiment [2].
Turning to `CNC(=O)Oc1cc(C)c(/C=C/c2cncc(C(=O)NC)c2)c(C)c1`, the inhibition in experiment [1] is -3% and 5%; in experiment [2] it was -1%.
On to `Cc1ccc2c(-c3ccnc(Nc4ccc5c(c4)OCCO5)n3)c(-c3ccc(C(F)(F)F)cc3)nn2n1`, for which the inhibition in experiment [1] was 9% and 1%; in experiment [2], 0% and -3%.
Consider `CS(=O)(=O)CCNCc1nc(-c2ccc3ncnc(Nc4ccc(F)c(Cl)c4)c3c2)cs1`, for which the inhibition in experiment [1] is 2%; in experiment [2] it was -3% and -1%.
In the case of `Fc1ccc(-c2ncn(C3CCNCC3)c2-c2ccnc(Oc3ccc(F)c(F)c3)n2)cc1`, the inhibition was 18% and 0% in experiment [1]; -3% and -1% in experiment [2].
`N#Cc1ccc(Oc2nccc(-c3c(-c4ccc(F)cc4)ncn3C3CCNCC3)n2)cc1`: the inhibition in experiment [1] was -2% and -1%; in experiment [2] it was 2% and 4%.
For `O=C(O[C@H]1CN[C@H](C#Cc2cc3ncnc(Nc4ccc5c(ccn5Cc5cc(F)ccc5F)c4)c3s2)C1)N1CCOCC1`, the inhibition is -1% in experiment [1]; 1% and -4% in experiment [2].
For `CC1=C(C(=O)Nc2ccc3[nH]ncc3c2)C(c2ccc(F)cc2)NC(=O)N1` (configuration not stated), the inhibition in experiment [1] was 4% and 5%; in experiment [2], 2%.
Consider `COc1ccc2cc(-c3c(-c4ccncc4)nc(-c4ccc(S(C)(=O)=O)cc4C)n3C)ccc2c1`, for which the inhibition is 5% in experiment [1]; 1% and 2% in experiment [2].
Turning to `NS(=O)(=O)c1cccc(-c2cc3ccncc3cc2OCc2ccccc2)c1`, the inhibition in experiment [1] is 2%; in experiment [2], -3% and -1%.
In the case of `CS(=O)(=O)CCNCc1coc(-c2ccc3ncnc(Nc4ccc(OCc5ccccc5)cc4)c3c2)c1`, the inhibition in experiment [1] is 2% and -8%; in experiment [2], -1% and 0%.
For `O=C1Nc2ccccc2/C1=C1\CCc2cc(O)ccc21`, the inhibition was 1% and 0% in experiment [1]; 13% in experiment [2].
Consider `O=C1NC(=O)C(c2ccccc2Cl)=C1Nc1cccc(O)c1`, for which the inhibition was 1% in experiment [1]; 1% and 3% in experiment [2].
For the molecule `Cc1cc(O)cc(C)c1/C=C/c1cncc(C(N)=O)c1`, the inhibition in experiment [1] was 4% and 0%; in experiment [2], -2%.
`CCCN1CCCC(c2ccc(Nc3nc(Nc4cc(F)ccc4C(N)=O)c4cc[nH]c4n3)c(OC)c2)C1` (configuration not stated): the inhibition in experiment [1] was -4% and -3%; in experiment [2], 11% and 9%.
Regarding `CCN(CC)S(=O)(=O)c1ccc(OC)c(Nc2ncc(-c3ccccc3)o2)c1`, the inhibition was 1% in experiment [1]; 2% and 3% in experiment [2].
Consider `Cc1cc(O)cc(C)c1/C=C/c1cncc(-c2nn[nH]n2)c1`, for which the inhibition in experiment [1] was 4% and 5%; in experiment [2], 2%.
In the case of `CC1=C(C(=O)Nc2cc(Cl)c3[nH]ncc3c2)C(c2ccc(C(F)(F)F)cc2)CC(=O)N1` (configuration not stated), the inhibition in experiment [1] is 2%; in experiment [2] it was 1% and 0%.
Take `C[C@@H](Oc1cc(-n2cnc3ccc(OC[C@@H](O)CO)cc32)sc1C(N)=O)c1ccccc1Cl`: the inhibition in experiment [1] is -3% and -4%; in experiment [2], 1% and 3%.
Consider `COc1cccc(-n2ncc3c(N/N=C/c4ccncc4)ncnc32)c1`, for which the inhibition in experiment [1] is 1% and 4%; in experiment [2], 6% and 4%.
`Cc1ccc(NC(=O)c2ccoc2)cc1-c1ccc(C(=O)NCC2CC2)cc1`: the inhibition is 5% and 4% in experiment [1]; 1% in experiment [2].
Regarding `CCNC(=O)O[C@H]1CN[C@H](C#Cc2cc3ncnc(Nc4ccc(OCc5cccc(F)c5)c(Cl)c4)c3s2)C1`, the inhibition in experiment [1] was 4% and 5%; in experiment [2], 1% and 3%.
As for `CCOc1nccc2c1nc(-c1nonc1N)n2CC`, the inhibition in experiment [1] was 15% and 18%; in experiment [2] it was 2% and 0%.
With `N#Cc1c(NC(=O)c2ccccc2F)sc2c1CCCC2`, the inhibition was -3% in experiment [1]; 1% and 4% in experiment [2].
Consider `FC(F)(F)c1cccc(-c2nn3ncccc3c2-c2ccnc(Nc3ccc4c(c3)OCCO4)n2)c1`, for which the inhibition was 1% and 2% in experiment [1]; 3% and 0% in experiment [2].
Consider `CC(=O)NCc1cccc(C#Cc2cncnc2Nc2ccc(OCc3cccc(F)c3)c(Cl)c2)c1`, for which the inhibition in experiment [1] was 1%; in experiment [2], -4%.
With `Cc1cc(-c2ccccn2)cc(C)c1/C=C/c1cncc(-c2nn[nH]n2)c1`, the inhibition is 3% and 1% in experiment [1]; -1% and -2% in experiment [2].
Turning to `COc1ccccc1Nc1ncc(-c2ccccc2)o1`, the inhibition in experiment [1] was -1% and 3%; in experiment [2], 5%.
Turning to `Fc1ccc(-c2c(-c3ccncc3)nc3n2CCS3)cc1`, the inhibition is -4% in experiment [1]; -1% and 0% in experiment [2].
Take `CS(=O)(=O)CCNCc1cc(-c2cc3c(Nc4ccc(OCc5cccc(F)c5)c(Cl)c4)ncnc3s2)cs1`: the inhibition in experiment [1] is 16% and 15%; in experiment [2] it was 0% and 2%.
Consider `c1ccc(-c2n[nH]cc2-c2ccnc(-c3ccc(OCCN4CCOCC4)cc3)c2)nc1`, for which the inhibition in experiment [1] is 5% and 4%; in experiment [2], -1% and 0%.
With `CCS(=O)(=O)c1ccc(OC)c(Nc2ncc(-c3cccc(OC)c3)o2)c1`, the values for the inhibition in experiment [1] and in experiment [2] were 1% and 3%, respectively.
Regarding `CCCNc1cccc(-n2ncc3c(N/N=C/c4ccncc4)ncnc32)c1`, the inhibition is 4% in experiment [1]; 9% and 10% in experiment [2].
Take `CNC(=O)c1cncc(/C=C/c2c(C)cccc2C)c1`: the inhibition in experiment [1] was -6% and -4%; in experiment [2], 0% and -1%.
On to `CN(C)CCOc1ccc(-c2cc(-c3ccc4c(c3)CCC4=NO)c(-c3ccncc3)o2)cc1`, for which the inhibition in experiment [1] was 0%; in experiment [2], 3% and 4%.
On to `Cc1ccc(C(=O)NC2CC2)cc1-c1ccc2[nH]ncc2c1`, for which the inhibition in experiment [1] is 0%; in experiment [2] it was 1% and -2%.
With `CN(C)CCOc1ccc(-c2nc(-c3ccncc3)c(-c3ccc4c(c3)CC/C4=N\O)[nH]2)cc1`, the inhibition was 2% and -6% in experiment [1]; -1% and 0% in experiment [2].
For `CS(=O)(=O)Nc1ccc(-c2ccc3c(NC(=O)C4CC4)n[nH]c3c2)cc1`, the inhibition in experiment [1] was 5% and 3%; in experiment [2] it was 3% and 2%.
As to `CN(C)c1cc2c(Nc3ccc4nc(Cc5ccccc5)[nH]c4c3)ncnc2cn1`, the inhibition in experiment [1] was 2% and 1%; in experiment [2], 0% and 6%.
Take `COc1cc2ncn(-c3cc(O[C@H](C)c4ccccc4Cl)c(C(N)=O)s3)c2cc1OC`: the inhibition in experiment [1] was -2% and 4%; in experiment [2], 3% and 2%.
For the molecule `O=C1NC(=O)C(c2cccc(Cl)c2)=C1Nc1ccc(O)c(Cl)c1`, the inhibition was 3% and 4% in experiment [1]; 16% and 15% in experiment [2].
Take `O=C(Nc1n[nH]c2nc(-c3ccc(O)cc3)c(Br)cc12)C1CC1`: the inhibition is 2% and 14% in experiment [1]; 4% and 6% in experiment [2].
With `NC(=O)c1cccc(Nc2nccc(Nc3cccc4[nH]ncc34)n2)c1`, the inhibition was -5% in experiment [1]; 41% and 42% in experiment [2].

These data come from ChEMBL document CHEMBL2007661, “Compounds: GSK PKIS; Assays: UNC Frye lab” (2012).
